Test results taken from US9738634B2, “Heterocyclic amide compound and herbicide” (SYNGENTA PARTICIPATIONS AG, priority 2013, dated 2017).

How the values were obtained:
Format in all cases: in vivo
barnyard grass [1] = test: Test Example 1: weedkilling efficacy, preemergent weed treatment in the submerged state; A: barnyard grass
Method in brief: (§1)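 Pre-emergence application onto floodwater (4 cm, alluvial soil) on the day of sowing, dose expressed as g/ha from diluted emulsion formulation. Weeds sown with 2.5-leaf transplanted rice as crop; plants held at 25–30 °C in greenhouse and scored against assessment criteria after 3 weeks.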

bulrush [2] = test: Test Example 1: weedkilling efficacy, preemergent weed treatment in the submerged state; B: bulrush
Method in brief: as §1

oval-leafed pondweed [3] = test: Test Example 1: weedkilling efficacy, preemergent weed treatment in the submerged state; C: oval-leafed pondweed
Method in brief: as §1

transplanted rice = test: Test Example 1: preemergent weed treatment in the submerged state, effect on crop; a: transplanted rice
Method in brief: as §1

barnyard grass [4] = test: Test Example 2: weedkilling efficacy, growth period weed treatment in the submerged state; A: barnyard grass
Method in brief: (§2)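 Weeds treated at the 1-2 leaf stage by application of diluted emulsion onto floodwater (4 cm depth, alluvial soil) at specified g/ha. Grown in greenhouse at 25 to 30° C; herbicidal effect rated three weeks after treatment.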

bulrush [5] = test: Test Example 2: weedkilling efficacy, growth period weed treatment in the submerged state; B: bulrush
Method in brief: as §2

oval-leafed pondweed [6] = test: Test Example 2: weedkilling efficacy, growth period weed treatment in the submerged state; C: oval-leafed pondweed
Method in brief: as §2

crabgrass = test: Test Example 3: weedkilling efficacy through soil treatment; D: crabgrass; details: soil treatment, treatment dosage 320 g/ha
Method in brief: (§3)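 Crop and weed responses were judged three weeks after a uniform surface spray of the water-diluted emulsion at the given g/ha rate. Seeds sat beneath about 1.5 cm of sterilized diluvial soil, and boxes stood in a greenhouse at 25 to 30° C.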

green foxtail = test: Test Example 3: weedkilling efficacy through soil treatment; E: green foxtail; details: soil treatment, treatment dosage 320 g/ha
Method in brief: as §3

barnyard grass [7] = test: Test Example 3: weedkilling efficacy through soil treatment; F: barnyard grass; details: soil treatment, treatment dosage 320 g/ha
Method in brief: as §3

wild oat = test: Test Example 3: weedkilling efficacy through soil treatment; G: wild oat; details: soil treatment, treatment dosage 320 g/ha
Method in brief: as §3

black-grass = test: Test Example 3: weedkilling efficacy through soil treatment; H: black-grass; details: soil treatment, treatment dosage 320 g/ha
Method in brief: as §3

Italian ryegrass = test: Test Example 3: weedkilling efficacy through soil treatment; I: Italian ryegrass; details: soil treatment, treatment dosage 320 g/ha
Method in brief: as §3

common wind-grass = test: Test Example 3: weedkilling efficacy through soil treatment; J: common wind-grass; details: soil treatment, treatment dosage 320 g/ha
Method in brief: as §3

Indian mallow = test: Test Example 3: weedkilling efficacy through soil treatment; K: Indian mallow; details: soil treatment, treatment dosage 320 g/ha
Method in brief: as §3

redroot pigweed = test: Test Example 3: weedkilling efficacy through soil treatment; L: redroot pigweed; details: soil treatment, treatment dosage 320 g/ha
Method in brief: as §3

fig-leafed goosefoot = test: Test Example 3: weedkilling efficacy through soil treatment; M: fig-leafed goosefoot; details: soil treatment, treatment dosage 320 g/ha
Method in brief: as §3

chickweed = test: Test Example 3: weedkilling efficacy through soil treatment; N: chickweed; details: soil treatment, treatment dosage 320 g/ha
Method in brief: as §3

catchweed = test: Test Example 3: weedkilling efficacy through soil treatment; O: catchweed; details: soil treatment, treatment dosage 320 g/ha
Method in brief: as §3

birds-eye speedwell = test: Test Example 3: weedkilling efficacy through soil treatment; p: birds-eye speedwell; details: soil treatment, treatment dosage 320 g/ha
Method in brief: as §3

directly sown rice = test: Test Example 3: soil treatment, effect on crop; b: directly sown rice; details: soil treatment, treatment dosage 320 g/ha
Method in brief: as §3

corn = test: Test Example 3: soil treatment, effect on crop; c: corn; details: soil treatment, treatment dosage 320 g/ha
Method in brief: as §3

soybean = test: Test Example 3: soil treatment, effect on crop; d: soybean; details: soil treatment, treatment dosage 320 g/ha
Method in brief: as §3

wheat = test: Test Example 3: soil treatment, effect on crop; e: wheat; details: soil treatment, treatment dosage 320 g/ha
Method in brief: as §3

beet = test: Test Example 3: soil treatment, effect on crop; f: beet; details: soil treatment, treatment dosage 320 g/ha
Method in brief: as §3

rapeseed = test: Test Example 3: soil treatment, effect on crop; g: rapeseed; details: soil treatment, treatment dosage 320 g/ha
Method in brief: as §3

## CC(C)(C(=O)Nc1ccc(F)cn1)N1COCN(c2ccccc2)C1=O [A-2-04]
Barnyard grass [1]; treatment dosage 320 g/ha
  A: barnyard grass, weed kill grade: 4 (weed kill ratio 70% or more, less than 90%)
Bulrush [2]; treatment dosage 320 g/ha
  B: bulrush, weed kill grade: 5 (weed kill ratio 90% or more, (practically complete withering))
oval-leafed pondweed [3]; treatment dosage 320 g/ha
  C: oval-leafed pondweed, weed kill grade: 4 (weed kill ratio 70% or more, less than 90%)
Transplanted rice; treatment dosage 320 g/ha
  a: transplanted rice, effect on crop grade: 0 (weed kill ratio 5% or less (practically no effect))
Barnyard grass [4]; treatment dosage 320 g/ha
  A (barnyard grass) weedkilling efficacy grade: 5 (weed kill ratio 90% or more, (practically complete withering))
Bulrush [5]; treatment dosage 320 g/ha
  B (bulrush) weedkilling efficacy grade: 5 (weed kill ratio 90% or more, (practically complete withering))
oval-leafed pondweed [6]; treatment dosage 320 g/ha
  C (oval-leafed pondweed) weedkilling efficacy grade: 4 (weed kill ratio 70% or more, less than 90%)
crabgrass
  D: crabgrass, weedkilling efficacy grade: 3 (weed kill ratio 40% or more, less than 70%)
Green foxtail
  E: green foxtail, weedkilling efficacy grade: 3 (weed kill ratio 40% or more, less than 70%)
Barnyard grass [7]
  F: barnyard grass, weedkilling efficacy grade: 3 (weed kill ratio 40% or more, less than 70%)
Wild oat
  G: wild oat, weedkilling efficacy grade: 0 (weed kill ratio 5% or less (practically no effect))
black-grass
  H: black-grass, weedkilling efficacy grade: 2 (weed kill ratio 20% or more, less than 40%)
Italian ryegrass
  I: Italian ryegrass, weedkilling efficacy grade: 3 (weed kill ratio 40% or more, less than 70%)
Common wind-grass
  J: common wind-grass, weedkilling efficacy grade: 4 (weed kill ratio 70% or more, less than 90%)
Indian mallow
  K: Indian mallow, weedkilling efficacy grade: 0 (weed kill ratio 5% or less (practically no effect))
Redroot pigweed
  L: redroot pigweed, weedkilling efficacy grade: 0 (weed kill ratio 5% or less (practically no effect))
fig-leafed goosefoot
  M: fig-leafed goosefoot, weedkilling efficacy grade: 0 (weed kill ratio 5% or less (practically no effect))
chickweed
  N: chickweed, weedkilling efficacy grade: 2 (weed kill ratio 20% or more, less than 40%)
catchweed
  O: catchweed, weedkilling efficacy grade: 0 (weed kill ratio 5% or less (practically no effect))
birds-eye speedwell
  P: birds-eye speedwell, weedkilling efficacy grade: 0 (weed kill ratio 5% or less (practically no effect))
Directly sown rice
  b: directly sown rice, effect on crop grade: 0 (weed kill ratio 5% or less (practically no effect))
corn
  c: corn, effect on crop grade: 0 (weed kill ratio 5% or less (practically no effect))
soybean
  d: soybean, effect on crop grade: 0 (weed kill ratio 5% or less (practically no effect))
wheat
  e: wheat, effect on crop grade: 0 (weed kill ratio 5% or less (practically no effect))
beet
  f: beet, effect on crop grade: 0 (weed kill ratio 5% or less (practically no effect))
rapeseed
  g: rapeseed, effect on crop grade: 0 (weed kill ratio 5% or less (practically no effect))

## CC(C)(C(=O)Nc1cc(F)cc(Cl)n1)N1COCN(c2ccccc2)C1=O [A-2-14]
Barnyard grass [1]; treatment dosage 320 g/ha
  A: barnyard grass, weed kill grade: 5 (weed kill ratio 90% or more, (practically complete withering))
Bulrush [2]; treatment dosage 320 g/ha
  B: bulrush, weed kill grade: 5 (weed kill ratio 90% or more, (practically complete withering))
oval-leafed pondweed [3]; treatment dosage 320 g/ha
  C: oval-leafed pondweed, weed kill grade: 5 (weed kill ratio 90% or more, (practically complete withering))
Transplanted rice; treatment dosage 320 g/ha
  a: transplanted rice, effect on crop grade: 3 (weed kill ratio 40% or more, less than 70%)
Barnyard grass [4]; treatment dosage 320 g/ha
  A (barnyard grass) weedkilling efficacy grade: 5 (weed kill ratio 90% or more, (practically complete withering))
Bulrush [5]; treatment dosage 320 g/ha
  B (bulrush) weedkilling efficacy grade: 5 (weed kill ratio 90% or more, (practically complete withering))
oval-leafed pondweed [6]; treatment dosage 320 g/ha
  C (oval-leafed pondweed) weedkilling efficacy grade: 5 (weed kill ratio 90% or more, (practically complete withering))
crabgrass
  D: crabgrass, weedkilling efficacy grade: 5 (weed kill ratio 90% or more, (practically complete withering))
Green foxtail
  E: green foxtail, weedkilling efficacy grade: 5 (weed kill ratio 90% or more, (practically complete withering))
Barnyard grass [7]
  F: barnyard grass, weedkilling efficacy grade: 5 (weed kill ratio 90% or more, (practically complete withering))
Wild oat
  G: wild oat, weedkilling efficacy grade: 5 (weed kill ratio 90% or more, (practically complete withering))
black-grass
  H: black-grass, weedkilling efficacy grade: 5 (weed kill ratio 90% or more, (practically complete withering))
Italian ryegrass
  I: Italian ryegrass, weedkilling efficacy grade: 5 (weed kill ratio 90% or more, (practically complete withering))
Common wind-grass
  J: common wind-grass, weedkilling efficacy grade: 5 (weed kill ratio 90% or more, (practically complete withering))
Indian mallow
  K: Indian mallow, weedkilling efficacy grade: 5 (weed kill ratio 90% or more, (practically complete withering))
Redroot pigweed
  L: redroot pigweed, weedkilling efficacy grade: 5 (weed kill ratio 90% or more, (practically complete withering))
fig-leafed goosefoot
  M: fig-leafed goosefoot, weedkilling efficacy grade: 5 (weed kill ratio 90% or more, (practically complete withering))
chickweed
  N: chickweed, weedkilling efficacy grade: 5 (weed kill ratio 90% or more, (practically complete withering))
catchweed
  O: catchweed, weedkilling efficacy grade: 5 (weed kill ratio 90% or more, (practically complete withering))
birds-eye speedwell
  P: birds-eye speedwell, weedkilling efficacy grade: 5 (weed kill ratio 90% or more, (practically complete withering))
Directly sown rice
  b: directly sown rice, effect on crop grade: 5 (weed kill ratio 90% or more, (practically complete withering))
corn
  c: corn, effect on crop grade: 4 (weed kill ratio 70% or more, less than 90%)
soybean
  d: soybean, effect on crop grade: 4 (weed kill ratio 70% or more, less than 90%)
wheat
  e: wheat, effect on crop grade: 4 (weed kill ratio 70% or more, less than 90%)
beet
  f: beet, effect on crop grade: 4 (weed kill ratio 70% or more, less than 90%)
rapeseed
  g: rapeseed, effect on crop grade: 4 (weed kill ratio 70% or more, less than 90%)

## CC(C)(C(=O)Nc1cc(Cl)cc(F)n1)N1COCN(c2ccccc2)C1=O [A-2-15]
Barnyard grass [1]; treatment dosage 280 g/ha
  A: barnyard grass, weed kill grade: 5 (weed kill ratio 90% or more, (practically complete withering))
Bulrush [2]; treatment dosage 280 g/ha
  B: bulrush, weed kill grade: 5 (weed kill ratio 90% or more, (practically complete withering))
oval-leafed pondweed [3]; treatment dosage 280 g/ha
  C: oval-leafed pondweed, weed kill grade: 5 (weed kill ratio 90% or more, (practically complete withering))
Transplanted rice; treatment dosage 280 g/ha
  a: transplanted rice, effect on crop grade: 4 (weed kill ratio 70% or more, less than 90%)
Barnyard grass [4]; treatment dosage 280 g/ha
  A (barnyard grass) weedkilling efficacy grade: 5 (weed kill ratio 90% or more, (practically complete withering))
Bulrush [5]; treatment dosage 280 g/ha
  B (bulrush) weedkilling efficacy grade: 5 (weed kill ratio 90% or more, (practically complete withering))
oval-leafed pondweed [6]; treatment dosage 280 g/ha
  C (oval-leafed pondweed) weedkilling efficacy grade: 5 (weed kill ratio 90% or more, (practically complete withering))
crabgrass
  D: crabgrass, weedkilling efficacy grade: 5 (weed kill ratio 90% or more, (practically complete withering))
Green foxtail
  E: green foxtail, weedkilling efficacy grade: 5 (weed kill ratio 90% or more, (practically complete withering))
Barnyard grass [7]
  F: barnyard grass, weedkilling efficacy grade: 5 (weed kill ratio 90% or more, (practically complete withering))
Wild oat
  G: wild oat, weedkilling efficacy grade: 5 (weed kill ratio 90% or more, (practically complete withering))
black-grass
  H: black-grass, weedkilling efficacy grade: 5 (weed kill ratio 90% or more, (practically complete withering))
Italian ryegrass
  I: Italian ryegrass, weedkilling efficacy grade: 5 (weed kill ratio 90% or more, (practically complete withering))
Common wind-grass
  J: common wind-grass, weedkilling efficacy grade: 5 (weed kill ratio 90% or more, (practically complete withering))
Indian mallow
  K: Indian mallow, weedkilling efficacy grade: 4 (weed kill ratio 70% or more, less than 90%)
Redroot pigweed
  L: redroot pigweed, weedkilling efficacy grade: 4 (weed kill ratio 70% or more, less than 90%)
fig-leafed goosefoot
  M: fig-leafed goosefoot, weedkilling efficacy grade: 4 (weed kill ratio 70% or more, less than 90%)
chickweed
  N: chickweed, weedkilling efficacy grade: 5 (weed kill ratio 90% or more, (practically complete withering))
catchweed
  O: catchweed, weedkilling efficacy grade: 5 (weed kill ratio 90% or more, (practically complete withering))
birds-eye speedwell
  P: birds-eye speedwell, weedkilling efficacy grade: 5 (weed kill ratio 90% or more, (practically complete withering))
Directly sown rice
  b: directly sown rice, effect on crop grade: 5 (weed kill ratio 90% or more, (practically complete withering))
corn
  c: corn, effect on crop grade: 4 (weed kill ratio 70% or more, less than 90%)
soybean
  d: soybean, effect on crop grade: 3 (weed kill ratio 40% or more, less than 70%)
wheat
  e: wheat, effect on crop grade: 4 (weed kill ratio 70% or more, less than 90%)
beet
  f: beet, effect on crop grade: 3 (weed kill ratio 40% or more, less than 70%)
rapeseed
  g: rapeseed, effect on crop grade: 4 (weed kill ratio 70% or more, less than 90%)
